Source: patent publication US20240150366A1, “4-AMINOQUINAZOLINE COMPOUND” (Astellas Pharma Inc., priority 2021, published 2024)
Where two headings read alike, the source gives them in different places.

How the values were obtained:
[1] = system: KRAS G12D mutant-positive pancreatic cancer line AsPC-1; assay: Non-anchorage-dependent cell growth inhibitory activity in AsPC-1 (spheroid 3D culture); format: cell-based; conditions: Homo sapiens, ASPC1, 144 h, read-out: IC50, non-anchorage-dependent cell growth inhibition
Procedure: The non-anchorage-dependent cell growth inhibitory activities of subject compounds were evaluated by spheroid 3D cell culture.
AsPC-1 cells were seeded at 36 μL/well on a low-cell-adhesive round bottom 384-well plate (Prime Surface: from Sumitomo Bakelite) to give 5×10^2 cells per well. The cell culture was performed under the same conditions as in the Test Example 2.
The next day, the subject compounds (6 points having final concentrations in the range of 10 μM to 3.0 nM) and DMSO, which was the solvent for the subject compounds, as a negative control were diluted 100-fold with a fresh medium and were each added at 4 μL per well. After culturing in the presence of 5% CO2 at 37° C. for six days, CellTiter Glo 2.0 (from Promega) was added at 20 μL per well. After stirring with a plate mixer (from FINEPCR) at normal temperature for an hour, the luminescent signals were measured with ARVO X3 (from PerkinElmer).
With the signaling value in treatment with DMSO taken as 0% inhibition and with the signaling value in the medium alone without cells taken as 100% inhibition, the 50% inhibition values (IC50) were calculated by Sigmoid-Emax model nonlinear regression analysis.

[2] = target: KRAS G12D/SOS/c-Raf complex (Homo sapiens (Human), UniProt P01116, G12D); assay: KRAS G12D/SOS/c-Raf complex formation inhibitory activity (TR-FRET); format: biochemical; conditions: human recombinant proteins, 1 hour at room temperature, read-out: IC50, KRAS G12D/SOS/c-Raf complex formation inhibition
Sequence of KRAS G12D/SOS/c-Raf complex (P01116 other isoform, or with tags, fused parts or gaps G12D): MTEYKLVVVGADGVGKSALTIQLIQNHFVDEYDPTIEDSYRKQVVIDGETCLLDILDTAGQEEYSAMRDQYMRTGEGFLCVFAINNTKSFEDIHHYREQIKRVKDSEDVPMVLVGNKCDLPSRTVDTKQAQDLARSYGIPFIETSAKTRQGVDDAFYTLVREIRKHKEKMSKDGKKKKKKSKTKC
Procedure: Using human recombinant KRAS G12D, SOS and c-Raf proteins, the inhibitory activity of subject compounds on the complex formation of the proteins was examined by a time-resolved fluorescence resonance energy transfer (TR-FRET) method.
Biotinylated AviTag-KRAS G12D (amino acid region of 1-185, GDP) (2.5 μL; 400 nM) and subject compounds dissolved in an assay buffer (50 mM HEPES, 150 mM NaCl, 5 mM MgCl2, 0.05% Tween 20, pH 7.0) were added to a 384-well plate (from Corning) in a liquid volume of 2.5 μL at 40,000 nM to 40 nM. Son of Sevenless (SOS) (amino acid region of 564-1049, 2.5 μL; 1.3 μM) and c-Raf (amino acid region of 51-131) GST (2.5 μL; 130 nM) containing GTP (from Sigma-Aldrich; 2 μM) were added to the plate, and the plate was allowed to stand for 1 hour at room temperature. Then, a mixture liquid (10 μL) of LANCE Ulight-anti-GST (from PerkinElmer; 120 nM) and LANCE Eu-W1024 labeled Streptoavidin (from PerkinElmer; 100 ng/mL) was added, and the 620-nm and 665-nm fluorescence intensities were measured using EnVision 2104 (from PerkinElmer) under the conditions of an excitation wavelength of 337 nm. After standardizing the values with the fluorescence intensity at a reference wavelength of 620 nm, the 50% inhibitory concentrations (IC50) were calculated by Sigmoid-Emax model nonlinear regression analysis with the signaling value in treatment with the solvent taken as 0% inhibition and with the signaling value without the addition of GTP taken as 100% inhibition.

[3] = system: ERK phosphorylation (Thr202/Tyr204) in KRAS G12D mutant-positive pancreatic cancer line AsPC-1; assay: ERK phosphorylation inhibitory activity in AsPC-1 (cell ELISA); format: cell-based; conditions: Homo sapiens, read-out: IC50, ERK phosphorylation inhibition
Procedure: The ERK phosphorylation inhibitory activities of subject compounds were evaluated by measuring phosphorylation of the 202th threonine (Thr202) and the 204th tyrosine (Tyr204) of ERK located downstream of the KRAS signal by cell ELISA.
AsPC-1 cells (ATCC, CRL-1682) were seeded at 36 μL/well on a 384-well plate (from Greiner bio-one) to give 2.0×10^4 cells per well. As for the cell culture conditions, RPMI-1640 medium (from Sigma-Aldrich) containing 10% fetal bovine serum (from GE Life Sciences) was used in the presence of 5% CO2 at 37° C.
The next day, the subject compounds (6 points having final concentrations in the range of 10 μM to 0.3 nM), trametinib (MEK inhibitor) of a final concentration of 1 μM as a positive control and DMSO, which was the solvent for the subject compounds, as a negative control were diluted 100-fold with a fresh medium and were each added at 4 μL per well, followed by culturing for 2 hours. After culturing, a 30% glyoxal solution (40% glyoxal [from Wako] was diluted with Phosphate Buffered Saline [PBS; from Wako) was quickly added at 30 μL per well, and the plate was allowed to stand for an hour at room temperature to thus immobilize the cells. Then, the plate was centrifuged (110× g, seven seconds, hereinafter centrifugation was performed under the same conditions unless otherwise specified) to remove the supernatant, and 0.1% Triton X-100 (from Amersham Biosciences)—containing PBS was added at 20 μL per well. After allowing the plate to stand for 10 minutes at room temperature, the supernatant was removed by centrifugation, and the same operation was further repeated. Next, 0.5% sodium dodecyl sulfate (SDS; from Invitrogen)-containing PBS was added at 20 μL per well. The plate was allowed to stand at room temperature for 30 minutes and was then centrifuged to remove the supernatant. Subsequently, a blocking solution (Intercept Blocking Buffer; from LI-COR Biosciences) was added at 20 μL per well, and the plate was allowed to stand for an hour at room temperature. The supernatant was removed by centrifugation, and an ERK (Thr202/Tyr204) phosphorylation antibody (Phospho-p44/42 MAPK (Erk 1/2) (Thr202/Tyr204) (D13.14.4E) XP Rabbit mAb; from Cell Signaling Technology) diluted 2,500-fold with the blocking solution was added at 10 μL per well as a primary antibody. The plate was allowed to stand at 4° C. overnight.
The next day, the plate was centrifuged to remove the supernatant, and 0.05% Tween-20-containing PBS (from Thermo Scientific; 20× PBS Tween-20 was diluted 20-fold with ion exchange water and used) was added at 20 μL per well. The supernatant was removed by centrifugation to thus wash each well. The washing was performed three times in total. After washing, an IRDye 800CW Goat anti-Rabbit IgG (from LI-COR Biosciences) diluted 1,000-fold with the blocking solution was added at 10 μL per well as a secondary antibody, and the plate was allowed to stand for an hour at room temperature. The plate was centrifuged to remove the supernatant, and each well was washed three times with 0.05% Tween-20-containing PBS in the same manner as after the primary antibody reaction. Centrifugation after the third washing was performed at 171×g for 17 seconds. After removing the supernatant, the plate was dried as it was with air at room temperature for three hours or more, and the 800-nm fluorescent signals were measured with Aerius (from LI-COR Biosciences).
With the signaling value at the time of addition of DMSO taken as 0% inhibition and with the signaling value at the time of addition of […] trametinib taken as 100% inhibition, the 50% inhibition values (IC50) were calculated by Sigmoid-Emax model nonlinear regression analysis.

## Cc1c(F)cc2[nH]ncc2c1-c1c(C2CC2)cc2c(N3C[C@@H]4C[C@H]3CN4)nc(OCc3cccnc3C(C)C)nc2c1OCc1ccc(Cn2c(=O)n(C)c3ncccc32)cc1 [Example 10, 1-[(4-{[(6-cyclopropyl-4-[(1S,4S)-2,5-diazabicyclo[2.2.1]heptan-2-yl]-7-(6-fluoro-5-methyl-1H-indazol-4-yl)-2-{[2-(propan-2-yl)pyridin-3-yl]methoxy}quinazolin-8-yl)oxy]methyl}phenyl)methyl]-3-methyl-1,3-dihydro-2H-imidazo[4,5-b]pyridin-2-one]
[1]
  IC50: 77 nM
[2]
  IC50: 33 nM
[3]; ASPC1, 2 h
  IC50: 41 nM

## Cc1c(F)cc2[nH]ncc2c1-c1c(C2CC2)cc2c(N3C[C@@H]4C[C@H]3CN4)nc(OC3CCOCC3)nc2c1OCc1ccc(CN2CCN(C(C)C)CC2=O)cc1 [Example 6, 1-({4-[({6-cyclopropyl-4-[(1S,4S)-2,5-diazabicyclo[2.2.1]heptan-2-yl]-7-(6-fluoro-5-methyl-1H-indazol-4-yl)-2-[(oxan-4-yl)oxy]quinazolin-8-yl}oxy)methyl]phenyl}methyl)-4-(propan-2-yl)piperazin-2-one]
[1]
  IC50: 92 nM
[2]
  IC50: 91 nM
[3]; ASPC1, 2 h
  IC50: 36 nM

## Cc1c(F)cc2[nH]ncc2c1-c1c(C2CC2)cc2c(N3C[C@@H]4C[C@H]3CN4)nc(OC3CCOCC3)nc2c1OCc1ccc(CN2CCN(C3CCOCC3)CC2=O)cc1 [Example 5, 1-({4-[({6-cyclopropyl-4-[(1S,4S)-2,5-diazabicyclo[2.2.1]heptan-2-yl]-7-(6-fluoro-5-methyl-1H-indazol-4-yl)-2-[(oxan-4-yl)oxy]quinazolin-8-yl}oxy)methyl]phenyl}methyl)-4-(oxan-4-yl)piperazin-2-one]
[1]
  IC50: 83 nM
[2]
  IC50: 107 nM
[3]; ASPC1, 2 h
  IC50: 32 nM

## Cc1c(F)cc2[nH]ncc2c1-c1c(C2CC2)cc2c(N3C[C@@H]4C[C@H]3CN4)nc(OC3CCOCC3)nc2c1OCc1ccc(Cc2nc3ncccn3n2)cc1 [Example 13, 6-cyclopropyl-4-[(1S,4S)-2,5-diazabicyclo[2.2.1]heptan-2-yl]-7-(6-fluoro-5-methyl-1H-indazol-4-yl)-2-[(oxan-4-yl)oxy]-8-({4-[([1,2,4]triazolo[1,5-a]pyrimidin-2-yl)methyl]phenyl}methoxy)quinazoline]
[1]
  IC50: 130 nM
[2]
  IC50: 77 nM
[3]; ASPC1, 2 h
  IC50: 78 nM

## Cc1c(F)cc2[nH]ncc2c1-c1c(C2CC2)cc2c(N3C[C@@H]4C[C@H]3CN4)nc(OC3CCOCC3)nc2c1OCc1ccc(Cn2nc(-c3cnccn3)nc2C)cc1 [Example 11, 6-cyclopropyl-4-[(1S,4S)-2,5-diazabicyclo[2.2.1]heptan-2-yl]-7-(6-fluoro-5-methyl-1H-indazol-4-yl)-8-[(4-{[5-methyl-3-(pyrazin-2-yl)-1H-1,2,4-triazol-1-yl]methyl}phenyl)methoxy]-2-[(oxan-4-yl)oxy]quinazoline]
[1]
  IC50: 133 nM
[2]
  IC50: 110 nM
[3]; ASPC1, 2 h
  IC50: 81 nM

## CCN1CCN(Cc2ccc(COc3c(-c4c(C)c(F)cc5[nH]ncc45)c(C4CC4)cc4c(N5C[C@@H]6C[C@H]5CN6)nc(OC5CCOCC5)nc34)cc2)C(=O)C1 [Example 4, 1-({4-[({6-cyclopropyl-4-[(1S,4S)-2,5-diazabicyclo[2.2.1]heptan-2-yl]-7-(6-fluoro-5-methyl-1H-indazol-4-yl)-2-[(oxan-4-yl)oxy]quinazolin-8-yl}oxy)methyl]phenyl}methyl)-4-ethylpiperazin-2-one]
[1]
  IC50: 99 nM
[2]
  IC50: 100 nM
[3]; ASPC1, 2 h
  IC50: 37 nM

## Cc1c(F)cc2[nH]ncc2c1-c1c(C2CC2)cc2c(N3C[C@@H]4C[C@H]3CN4)nc(OC3CCOCC3)nc2c1OCc1ccc(CN2CCN(C)CC2=O)cc1 [Example 2, 1-({4-[({6-cyclopropyl-4-[(1S,4S)-2,5-diazabicyclo[2.2.1]heptan-2-yl]-7-(6-fluoro-5-methyl-1H-indazol-4-yl)-2-[(oxan-4-yl)oxy]quinazolin-8-yl}oxy)methyl]phenyl}methyl)-4-methylpiperazin-2-one]
[1]; AsPC-1 spheroid 3D culture, six days, CellTiter Glo 2.0
  IC50: 166 nM
[2]
  IC50: 96 nM
[3]; ASPC1, AsPC-1 cells, 2 hours culture, cell ELISA
  IC50: 49 nM
